Experimental data: patent publication US6608086B2, “Dihydropyridines and new uses thereof” (Synaptic Pharmaceutical Corporation, priority 1993, dated 2003)
Where a name gives a salt, the structure may show the parent alone. Read-outs that look alike come from different tables or passages of the source.

Key:
[1] = biological target: T1, α1A Human Adrenergic Receptor (Homo sapiens, UniProt P25100); assay: Radioligand binding, [3H]prazosin, cloned human α1A adrenergic receptor
T1 construct: The entire coding region of α1A (1719 bp); expressed in transfected cells
T1 sequence (P25100 1-572): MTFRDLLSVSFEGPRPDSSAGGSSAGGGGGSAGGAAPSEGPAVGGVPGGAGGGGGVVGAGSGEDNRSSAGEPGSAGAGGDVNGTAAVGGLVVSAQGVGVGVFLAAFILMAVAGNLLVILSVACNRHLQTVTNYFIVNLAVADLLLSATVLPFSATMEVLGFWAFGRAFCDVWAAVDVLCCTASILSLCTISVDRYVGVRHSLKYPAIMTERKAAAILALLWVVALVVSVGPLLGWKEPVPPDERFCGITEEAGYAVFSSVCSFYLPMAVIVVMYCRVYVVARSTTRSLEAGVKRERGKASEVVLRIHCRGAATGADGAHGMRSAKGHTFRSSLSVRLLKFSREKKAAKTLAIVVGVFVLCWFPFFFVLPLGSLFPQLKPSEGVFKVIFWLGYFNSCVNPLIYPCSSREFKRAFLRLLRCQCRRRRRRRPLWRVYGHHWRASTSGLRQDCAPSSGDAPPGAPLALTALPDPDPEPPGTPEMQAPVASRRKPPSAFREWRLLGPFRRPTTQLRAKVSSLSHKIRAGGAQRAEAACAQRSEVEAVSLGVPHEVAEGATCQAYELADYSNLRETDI
Procedure, shortened: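 [3H]prazosin 0.5 nM, transfected LM(tk−) membranes, 37° C, 20 min. Buffer 50 mM Tris-HCl/1 mM MgCl2/0.1% ascorbate, pH 7.5. NSB: 10 μM phentolamine. Filtration harvest.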

α2A receptor = biological target: T2, α2A receptor (Homo sapiens, UniProt P08913); assay: Competition binding, [3H]rauwolscine, human α2A receptor
T2 construct: host or cells: LM(tk-) cells, line L-α2A
T2 sequence (P08913 1-465): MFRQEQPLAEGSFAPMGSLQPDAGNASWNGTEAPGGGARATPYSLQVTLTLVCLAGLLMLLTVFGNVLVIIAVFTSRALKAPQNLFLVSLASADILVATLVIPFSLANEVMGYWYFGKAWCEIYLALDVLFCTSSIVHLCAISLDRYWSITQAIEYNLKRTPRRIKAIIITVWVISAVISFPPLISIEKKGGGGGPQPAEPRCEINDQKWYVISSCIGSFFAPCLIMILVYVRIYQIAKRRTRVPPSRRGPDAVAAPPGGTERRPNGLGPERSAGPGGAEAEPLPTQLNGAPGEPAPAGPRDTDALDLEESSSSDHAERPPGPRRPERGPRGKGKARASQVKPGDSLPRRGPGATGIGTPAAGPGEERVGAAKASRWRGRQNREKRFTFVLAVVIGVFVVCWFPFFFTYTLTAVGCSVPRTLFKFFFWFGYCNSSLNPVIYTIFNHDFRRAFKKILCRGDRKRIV
From the text: (§1) The protocols for these experiments are given below.
(§2) α2 Human Adrenergic Receptors:
(§3) To determine the potency of […], antagonists at the α2 receptors, LM(tk−) cell lines stably transfected with the genes encoding the α2A, α2B, and α2C receptors were used. The cell line expressing the α2A receptor is designated L-α2A, and was deposited on Nov. […] The cell line expressing the α2B receptor is designated L-NGC-α2B, and was deposited on Oct. […] The cell line expressing the α2C receptor is designated L-α2C, and was deposited on Nov. […] Cell lysates were prepared as described above (see Radioligand Binding Assays), and suspended in 25 mM glycylglycine buffer (pH 7.6 at room temperature). Equilibrium competition binding assay were performed using [3H]rauwolscine (0.5 nM), and nonspecific binding was determined by incubation with 10 μM phentolamine. The bound radioligand was separated by filtration through GF/B filters using a cell harvester.

α2C receptor = biological target: T3, α2C receptor (Homo sapiens, UniProt P18825); assay: Competition binding, [3H]rauwolscine, human α2C receptor
T3 construct: host or cells: LM(tk-) cells, line L-α2C
T3 sequence (P18825 1-462): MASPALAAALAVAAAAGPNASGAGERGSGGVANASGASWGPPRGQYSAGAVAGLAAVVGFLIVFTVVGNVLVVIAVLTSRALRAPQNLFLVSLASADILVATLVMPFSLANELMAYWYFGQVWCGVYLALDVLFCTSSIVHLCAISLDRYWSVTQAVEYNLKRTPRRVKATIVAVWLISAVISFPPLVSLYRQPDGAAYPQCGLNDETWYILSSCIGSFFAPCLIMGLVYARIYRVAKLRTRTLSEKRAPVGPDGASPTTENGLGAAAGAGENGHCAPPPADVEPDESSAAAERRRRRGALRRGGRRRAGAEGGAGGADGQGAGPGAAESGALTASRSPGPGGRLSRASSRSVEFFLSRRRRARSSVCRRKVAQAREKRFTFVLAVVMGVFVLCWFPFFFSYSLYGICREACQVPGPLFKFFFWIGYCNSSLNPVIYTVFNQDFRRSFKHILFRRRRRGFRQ
From the text: as §1, §2, §3

[2] = [3H]prazosin, cloned human α1A receptor, LM(tk-) cell membranes, read-out: PKi alpha-1 1a (converted)
[3] = [3H]rauwolscine, human α2A receptor, LM(tk-) cells, read-out: PKi alpha-2 2a (converted)
[4] = [3H]rauwolscine, human α2C receptor, LM(tk-) cells, read-out: PKi alpha-2 2c (converted)
[5] = [3H]prazosin, cloned human receptor in LM(tk-) cell membranes, SEM and n in lines below
[6] = [3H]rauwolscine, LM(tk-) cell line L-α2C, SEM and n in lines below
[7] = [3H]prazosin, cloned human receptor, LM(tk-) cell membranes, mean, read-out: PKi alpha-1 1a (converted)
[8] = [3H]rauwolscine, human receptor, LM(tk-) cell lysates, mean, read-out: PKi alpha-2 2a (converted)
[9] = [3H]rauwolscine, human receptor, LM(tk-) cell lysates, mean, read-out: PKi alpha-2 2c (converted)

`CCC1=C(C(=O)NN2CCOCC2)C(c2ccc([N+](=O)[O-])cc2)C(C(=O)NCCCN2CCC(c3ccccc3)(c3ccccc3)CC2)=C(COC)N1` (centres unmarked) [Example 248, 6-Ethyl-1,4-dihydro-2-((methyl)oxy)methyl-5-N-(morpholin-4yl)carboxamido-4-(4-nitro)phenyl-3-(N-(3-(4,4-diphenylpiperidin-1-yl)propyl))carboxamidopyridine] was tested. Which Ki [1, 2] did it give?
Its Ki is 2950 nM.

And the Ki (α2A receptor; [3])?
The Ki was 1000 nM.

And the Ki (α2C receptor; [4])?
Its Ki is 525 nM.

Which “pKi alpha-1 1a” value [1, 5] does the source give for `CC1=C(C(N)=O)C(c2ccc([N+](=O)[O-])cc2)C(C(=O)NC2CCN(Cc3ccccc3)CC2)=C(c2ccoc2)N1.Cl.O` (centres unmarked) [Example 66] here?
Its value is 5.45.

And the “pKi alpha-2 2a” value (α2A receptor; [3H]rauwolscine, LM(tk-) cell line L-α2A, SEM and n in lines below)?
The value was 5.53.

And the “pKi alpha-2 2c” value (α2C receptor; [6])?
The value was 6.24.

What does the source list for `CCNC(=O)C1=C(CC)NC(CC)=C(C(=O)NCCCN2CCC(C(=O)OCC)(c3ccccc3)CC2)C1c1ccc([N+](=O)[O-])cc1` (centres unmarked) [Example 182, 2,6-Diethyl-1,4-dihydro-3-{N-[3-(4-ethoxycarbonyl-4-phenylpiperidin-1-yl)propyl]}carboxamido-5-(N-ethyl)carboxamido-4(4-nitrophenyl)pyridine]?
Ki ([1]; PKi alpha-1 1a): 3390 nM; Ki (α2A receptor): 2190 nM; Ki (α2C receptor; PKi alpha-2 2c): 1150 nM

How did the Ki [1, 7] turn out when `CCC1=C(C(N)=O)C(c2ccc([N+](=O)[O-])cc2)C(C(=O)NCCCN2CCC(C(=O)OC)(c3ccccc3)CC2)=C(CCCCN)N1` (centres unmarked) [Example 166, 2-(4-Aminobutyl)-5-carboxamido-6-ethyl-1,4-dihydro-3-{N-[3-(4-methoxycarbonyl-4-phenylpiperidin-1-yl)propyl]}carboxamido-4-(4-nitrophenyl)pyridine] was run?
Its Ki is 2340 nM.

What about the Ki (α2A receptor; [8]) of the same compound?
The Ki was 1860 nM.

What about the Ki (α2C receptor; [9]) of the same compound?
The Ki was 1020 nM.

How did the “pKi alpha-1 1a” value ([1]; [3H]prazosin, cloned human α1A receptor, LM(tk−) cell membranes) turn out when `CCC1=C(C(N)=O)C(c2ccc([N+](=O)[O-])cc2)C(C(=O)NCCCN2CCC(c3ccccc3)(c3ccccc3)CC2)=C(CC)N1` (centres unmarked) [Example 120, 5-Carboxamido-2,6-diethyl-1,4-dihydro-4-(4-nitrophenyl)-3-{N-[3-(4,4-diphenylpiperidin-1-yl)propyl]} carboxamidopyridine] was run?
Its value is 6.33.

What about the Ki (α2A receptor; [3H]rauwolscine, human α2A receptor, LM(tk−) cells, read-out: pKi alpha-2 2a (converted)) of the same compound?
The Ki was 363 nM.

And the “pKi alpha-2 2c” value (α2C receptor; [3H]rauwolscine, human α2C receptor, LM(tk−) cells)?
The value was 6.72.

Which Ki ([1]; [3H]prazosin, cloned human receptor in LM(tk-) cell membranes, SEM and n in lines below, read-out: pKi alpha-1 1a (converted)) does the source give for `COc1cc2c(cc1OC)CN(CCCNC(=O)C1=C(C)NC(C)=C(C(N)=O)C1c1ccc([N+](=O)[O-])cc1)CC2` (centres unmarked) [Example 58, 5-Carboxamido-1,4-dihydro-3-{N-[3-(1,2,3,4-tetrahydro-6,7-dimethoxyisoquinolin-2-yl)propyl]}carboxamido-2,6-dimethyl-4-(4-nitrophenyl)pyridine hydrochloride] here?
The Ki was 3020 nM.

What about the Ki (α2A receptor; [3H]rauwolscine, LM(tk-) cell line L-α2A, SEM and n in lines below, read-out: pKi alpha-2 2a (converted)) of the same compound?
Its Ki is 8.32 nM.

And the Ki (α2C receptor; [3H]rauwolscine, LM(tk-) cell line L-α2C, SEM and n in lines below, read-out: pKi alpha-2 2c (converted))?
The Ki was 50.1 nM.

Which results are given for `COC(=O)C1(c2ccccc2)CCN(CCCNC(=O)C2=C(COCCN)NC(C)=C(C(C)=O)C2c2ccc(F)cc2)CC1` (centres unmarked) [Example 245, 5-Acetyl-2-((2-aminoethyl)oxy)methyl-4-(4-fluoro)phenyl-1,4-dihydro-3-(N-3-(4-methoxycarbonyl-4-phenylpiperidin-1-yl)propyl)carboxamido-6-methylpyridine]?
Ki [1, 2]: 977 nM; Ki (α2A receptor; [3]): 1050 nM; Ki (α2C receptor; [4]): 316 nM

For `COC(=O)C1(c2ccccc2)CCN(CCCNC(=O)C2=C(COCCN=[N+]=[N-])NC(C)=C(C(N)=O)C2c2ccc([N+](=O)[O-])cc2)CC1` (centres unmarked) [Example 183, 2-[(2-Azidoethoxy)methyl]-5-carboxamido-1,4-dihydro-3-{N-[3-(4-methoxycarbonyl-4-phenylpiperidin-1-yl)propyl]}carboxamido-6-methyl-4-(4-nitrophenyl)pyridine], which Ki [1, 7] is on record?
Its Ki is 501 nM.

What about the Ki (α2A receptor; [8]) of the same compound?
Its Ki is 1050 nM.

And the Ki (α2C receptor; [9])?
Its Ki is 437 nM.

Which results are given for `CC1=C(C(=O)NCCCN2CCC(c3ccccc3)(c3ccccc3)CC2)C(c2ccc([N+](=O)[O-])cc2)C(C(=O)N(C)C)=C(C)N1` (centres unmarked) [Example 39, 1,4-Dihydro-2,6-dimethyl-3-(N,N-dimethyl) carboxamido-4-(4-nitrophenyl)-5-{N-[3-(4,4-diphenylpiperidin-1-yl)propyl]}carboxamidopyridine]?
pKi alpha-1 1a [1, 5]: 5.77; pKi alpha-2 2c (α2C receptor; [6]): 6.09
